In PMC11530130, “Peripherally restricted PICK1 inhibitor mPD5 ameliorates pain behaviors in murine inflammatory and neuropathic pain models” (JCI Insight, 2024):
Several values for one entry are separate records, joined by “and”; a condition that tells them apart may be missing. Equal values may be shown once.

Tests used:
Assay type in all cases: in vivo, mouse
[1] = system: mice, CIBP model (NCTC 2472 cell inoculation); test: CIBP model, limb use score; conditions: for limb use score (Fig S7B): CIBP mice, individual animals; for effect on limb-use score: CIBP, female mice
Description: (§1) solution (0.05 mg/kg) injected s.c. 30 min before surgery (10 μL/g). For surgery, mice were anaesthetised with ketamine (100 mg/kg, i.p.) and xylazine (10 mg/kg, i.p.) (volume 10 µL/g) with 100 μL of 1% xylocaine solution infiltrated at the site of the incision. The distal trifurcation of the sciatic nerve was identified, and the tibial and common peroneal branches were ligated with polypropylene nonabsorbable 6-0 sutures (Ethicon) and 1 mm was cut out, leaving the sural branch intact. The wound was closed with sutures, and the animals were allowed to recover and returned to their cages. Two subcutaneous injections of buprenorphine (0.05 mg/kg) were performed with an 8 to 12 hours delay decreasing pain due to the surgery […]
(§2) The remaining SNI pain experiments were performed in-house using the following procedure.
(§3) SNI surgery was performed on the left hindleg of C57BL/6J male and female mice (Janvier, France) under 2% isoflurane anaesthesia. Skin on the lateral surface was incised between hip and knee followed by lengthwise division of the biceps femoris muscle leading to exposure of the three branches of the sciatic nerve. Sural branch was left intact, while the peroneal and tibial branches were ligated with a single surgical knot and axotomized distally of the ligation.
(§4) Wounds were closed with surgical glue or medical clips and animals were monitored daily for signs of stress or discomfort, but in all cases recovered uneventfully.
(§5) Induction of Diabetic neuropathy (STZ model).
(§6) Diabetes was induced by a single i.p. injection of […] streptozocin (STZ) solution (100 μL/10 g, Sigma-Aldrich S0130, batch #WXBB7152V) in male seven-week-old C57BL/6J (Charles River) mice. Glycemia was tested before, and seven days after injection. All injected mice had blood glucose concentration >350 mg/dL from day seven and were used for analgesic testing of the compounds from day 14. One mouse had to be euthanized at seven days post injection. This experiment was performed by Phenotype Expertise, Marseilles, France - Pain and CNS behaviour CRO under supervision of Stéphane Gaillard, PhD (CEO).
(§7) Induction of cancer induced bone pain (CIBP model).
(§8) Osteosarcoma cell line NCTC 2472 (American Type Culture Collection, CCL-11TM) was cultured for two weeks prior to surgery in NCTC-135 medium (Sigma-Aldrich, Denmark) supplemented with sodium hydrogen carbonate and 10% equine serum (Sigma-Aldrich, Denmark). On the day of surgery, cells were washed with PBS and incubated with 3 mL trypsin-EDTA for five min followed by centrifugation (2800 rpm, 3 min). Supernatant was removed, and cell pellet resuspended in PBS to obtain a cell density of 10^7 cells/mL.
(§9) Two separate cohorts of female C3H/HeNHsd mice (Envigo, Netherlands) of 7-8 weeks, were anaesthetized with 6.25 mg/kg xylazine (Rompun vet, 20 mg/mL, Bayer, KVP Pharma + Veterinär Produkte GmbH, Germany, Batch: KV02BHF) and 43.75 mg/kg ketamine (Ketaminol vet, 100 mg/mL, MSD Animal Health, AN Boxmeer, The Netherlands, Batch:
(§10) A140A01) and received 1.0-1.2% isoflurane (1000 mg/g isoflurane, Attane vet, ScanVet, Piramal Critical Care Ltd., UK, Batch: G123J18B) during surgery. The mouse was placed on a 37 °C heating pad. Both hind legs were shaved, and a small horizontal incision was made under the knee followed by a vertical incision of approximately 0.5 cm until the patellar tendon was exposed. The patellar tendon was moved to the lateral side exposing the distal epiphysis of the femur. A hole was made in the middle of the distal epiphysis by gently pushing a 30 G needle (0.3x12 mm, 30 Gx1/2”, Luer-Lock, CHIRANA T. Injecta, CH30012) through the bone while rotating. The position of the needle was confirmed by X-ray imaging (IVIS Lumina XR Apparatus, Caliper Life Sciences, Belgium). Following resuspension, 10 μL, corresponding to […]
(§11) […] NCTC 2472 cells or PBS (sham mice), was injected in the bone marrow cavity with an insulin syringe (1 mL Luer, BD PlastipakTM, 303172) attached to a 30 G needle and left in the […]
(§12) femur for one min. […]

naive mice = test: Capsaicin test (licking time); parameters: capsaicin-induced licking time, individual mice: unit not given here; conditions: for capsaicin-induced licking time, individual mice: female and male; for effect on capsaicin-induced licking time: naive mice, both sexes
Description: Naïve wildtype male and female mice (10 weeks of age) were habituated to handling and experimental set up for one week prior to data collection. […]
Mice were pretreated with 10 μmol/kg mPD5, 10 mg/kg morphine (RH Pharmacy, Denmark, Vnr. 475249), or PBS 45 min before habituation to observation container (glass cylinder surrounded by mirrors on 2 sides) for 15 min. Mice then received an intraplantar injection of 20 µl capsaicin (1.6 ug/paw) (sigma CAS Number:404-86-4, diluted with 1:1:8 solution of tween-20, 70% ethanol, and MilliQ water) in one hind paw and were reintroduced to the observation container. Mice were recorded for three min after i.pl. injection with capsaicin and euthanized the same day. Mice were scored manually for the amount of time spent paw licking within three min after capsaicin administration. […]
Females were weighed on a regular basis from removal of the males […]
Unless otherwise stated, all data were analysed using GraphPad Prism 9.4.1. and presented as mean +-SEM with the significance level set to p < 0.05. For locomotion and elevated plus maze, Ethovision XT 13 (Noldus) was used to track the distance travelled by each animal. For within group analysis (i.e., von Frey experiments), two-way ANOVA followed by Dunnett’s post hoc test was used. For between group analysis of multiple time points (i.e., locomotion experiments), two-way ANOVA was used without post hoc test due to lack of treatment significance in the ANOVA test. For the limb use experiment, data pre versus post treatment was analysed with a Kruskal Wallis test due to the non-parametric nature of the data. When analysing histograms of three groups or more (i.e., marble burying and elevated plus maze),

[2] = system: mice, CIBP model (NCTC 2472 cell inoculation); test: CIBP model, static weight bearing; conditions: for static weight bearing (Fig S7C): CIBP mice, individual animals; for effect on weight-bearing ratio: CIBP, female mice
Description: as §1, §2, §3, §4, §5, §6, §7, §8, §9, §10, §11, §12

Row | Compound | limb use score (Fig S7B) ([1]; BL1) | limb use score (Fig S7B) ([1]; BL2) | limb use score (Fig S7B) ([1]; Post (after treatment)) | limb use score (Fig S7B) ([1]; Pre (before treatment)) | effect on limb-use score ([1]; s.c. 5 mg/kg) | capsaicin-induced licking time, individual mice (naive mice; 10 mg/kg) | effect on capsaicin-induced licking time (naive mice; s.c. 10 mg/kg) | static weight bearing (Fig S7C) ([2]; BL1) | static weight bearing (Fig S7C) ([2]; BL2) | static weight bearing (Fig S7C) ([2]; Post (after treatment)) | static weight bearing (Fig S7C) ([2]; Pre (before treatment)) | effect on weight-bearing ratio ([2]; s.c. 5 mg/kg) | effect on limb-use score ([1]; s.c. 10 μmol/kg) | capsaicin-induced licking time, individual mice (naive mice; 10 umol/kg, female mice) | capsaicin-induced licking time, individual mice (naive mice; 10 umol/kg, male mice) | effect on capsaicin-induced licking time (naive mice; s.c. 10 μmol/kg) | effect on weight-bearing ratio ([2]; s.c. 10 μmol/kg)
1 | CN1CC[C@]23c4c5ccc(O)c4O[C@H]2[C@@H](O)C=C[C@H]3[C@H]1C5 [morphine] | 4 | 4 | 3 (3×) and 1 (2×) and 2 (4×) and 0 | 2 (3×) and 1 (5×) and 0 (2×) | partial but significant increase | 0 | significantly reduced the licking time | 50.01 and 50.76 and 43.99 and 53.97 and 55.19 and 55.68 and 51.81 and 54.18 and 46.08 and 56.67 | 47.61 and 46.15 and 51.95 and 48.94 and 50.73 and 54.51 and 47.91 and 45.61 and 50.32 and 52.04 | 30.29 and 34.04 and 29.99 and 42.43 and 37.09 and 45.12 and 35.66 and 34.06 and 42.67 and 36.03 | 24.27 and 31.25 and 36.25 and 30.33 and 34.01 and 33.28 and 32.53 and 29.97 and 30.04 and 32.35 | partial but significant increase |  |  |  |  | 
2 | CCCCCCCCCCCCCC(=O)N(CCOCCOCCC(=O)N[C@@H](Cc1c[nH]cn1)C(=O)N[C@@H](Cc1c[nH]c2ccccc12)C(=O)N[C@@H](CC(C)C)C(=O)N[C@@H](CCCCN)C(=O)N[C@H](C(=O)O)C(C)C)CCOCCOCCC(=O)N[C@@H](Cc1c[nH]cn1)C(=O)N[C@@H](Cc1c[nH]c2ccccc12)C(=O)N[C@@H](CC(C)C)C(=O)N[C@@H](CCCCN)C(=O)N[C@H](C(=O)O)C(C)C [mPD5, myristoyl-NPEG4-(HWLKV)2] |  |  |  |  |  |  |  |  |  |  |  |  | no effect | 12.96 and 9.28 and 8.67 and 18.61 | 12.98 and 14.19 and 30.63 | no effect on time spent licking | no effect
